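Compound exposure: 48 hours, 5 concentrations, 96-well plates. At the TGI there is no net growth.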
system: SK-MEL-2 melanoma; experiment: NCI tumour cell line growth inhibition, 48 h

Row | SMILES | TGI
1 | Oc1ccc(-c2nc(-c3cccnc3)c(-c3ccc(F)cc3)[nH]2)cc1 | 34.6 µM
2 | Cc1ccsc1/C=N/Nc1ncccn1 | > 100 µM
3 | O=C(O)CSc1ccc([N+](=O)[O-])cc1[N+](=O)[O-] | > 100 µM
4 | Nc1ccccc1SC(C[N+](=O)[O-])c1ccc2c(c1)OCO2 (centres undefined) | 27.7 µM

system: SK-MEL-28 melanoma; experiment: NCI tumour cell line growth inhibition, 48 h

Row | SMILES | TGI
5 | O=c1[nH]cc(N=Cc2cc(Cl)cc(Cl)c2O)c(=O)[nH]1 | 54.5 µM
6 | Oc1ccc(-c2nc(-c3cccnc3)c(-c3ccc(F)cc3)[nH]2)cc1 | 35.9 µM
7 | COc1ccc(N2C(=O)C3c4[nH]c5ccccc5c4C4CCC(C(C)(C)C)CC4C3C2=O)c(C)c1 (centres undefined) | > 100 µM
8 | Cc1ccsc1/C=N/Nc1ncccn1 | > 100 µM
9 | O=C1C(=Cc2ccc(O)cc2)N=C(c2ccccc2)N1n1c(-c2ccccc2)nc2ccccc2c1=O | > 100 µM
10 | O=C(O)CSc1ccc([N+](=O)[O-])cc1[N+](=O)[O-] | > 100 µM
11 | Nc1ccccc1SC(C[N+](=O)[O-])c1ccc2c(c1)OCO2 (centres undefined) | 11.3 µM

system: SK-MEL-5 melanoma; experiment: NCI tumour cell line growth inhibition, 48 h

Row | SMILES | TGI
12 | O=c1[nH]cc(N=Cc2cc(Cl)cc(Cl)c2O)c(=O)[nH]1 | 42.6 µM
13 | Oc1ccc(-c2nc(-c3cccnc3)c(-c3ccc(F)cc3)[nH]2)cc1 | 33.8 µM
14 | COc1ccc(N2C(=O)C3c4[nH]c5ccccc5c4C4CCC(C(C)(C)C)CC4C3C2=O)c(C)c1 (centres undefined) | > 100 µM
15 | Cc1ccsc1/C=N/Nc1ncccn1 | > 100 µM
16 | O=C1C(=Cc2ccc(O)cc2)N=C(c2ccccc2)N1n1c(-c2ccccc2)nc2ccccc2c1=O | > 100 µM
17 | Nc1ccccc1SC(C[N+](=O)[O-])c1ccc2c(c1)OCO2 (centres undefined) | 15.3 µM

system: SK-OV-3 ovarian; experiment: NCI tumour cell line growth inhibition, 48 h

Row | SMILES | TGI
18 | O=c1[nH]cc(N=Cc2cc(Cl)cc(Cl)c2O)c(=O)[nH]1 | 53.9 µM
19 | Oc1ccc(-c2nc(-c3cccnc3)c(-c3ccc(F)cc3)[nH]2)cc1 | 57.1 µM
20 | COc1ccc(N2C(=O)C3c4[nH]c5ccccc5c4C4CCC(C(C)(C)C)CC4C3C2=O)c(C)c1 (centres undefined) | > 100 µM
21 | Cc1ccsc1/C=N/Nc1ncccn1 | > 100 µM
22 | O=C1C(=Cc2ccc(O)cc2)N=C(c2ccccc2)N1n1c(-c2ccccc2)nc2ccccc2c1=O | > 100 µM
23 | O=C(O)CSc1ccc([N+](=O)[O-])cc1[N+](=O)[O-] | > 100 µM
24 | Nc1ccccc1SC(C[N+](=O)[O-])c1ccc2c(c1)OCO2 (centres undefined) | 15.9 µM

system: SN12C renal; experiment: NCI tumour cell line growth inhibition, 48 h

Row | SMILES | TGI
25 | O=c1[nH]cc(N=Cc2cc(Cl)cc(Cl)c2O)c(=O)[nH]1 | > 100 µM
26 | Oc1ccc(-c2nc(-c3cccnc3)c(-c3ccc(F)cc3)[nH]2)cc1 | 54.6 µM
27 | COc1ccc(N2C(=O)C3c4[nH]c5ccccc5c4C4CCC(C(C)(C)C)CC4C3C2=O)c(C)c1 (centres undefined) | > 100 µM
28 | Cc1ccsc1/C=N/Nc1ncccn1 | > 100 µM
29 | O=C(O)CSc1ccc([N+](=O)[O-])cc1[N+](=O)[O-] | > 100 µM
30 | Nc1ccccc1SC(C[N+](=O)[O-])c1ccc2c(c1)OCO2 (centres undefined) | 14.3 µM

system: SNB-19 CNS; experiment: NCI tumour cell line growth inhibition, 48 h

Row | SMILES | TGI
31 | O=c1[nH]cc(N=Cc2cc(Cl)cc(Cl)c2O)c(=O)[nH]1 | > 100 µM
32 | Oc1ccc(-c2nc(-c3cccnc3)c(-c3ccc(F)cc3)[nH]2)cc1 | 60.8 µM
33 | COc1ccc(N2C(=O)C3c4[nH]c5ccccc5c4C4CCC(C(C)(C)C)CC4C3C2=O)c(C)c1 (centres undefined) | > 100 µM
34 | Cc1ccsc1/C=N/Nc1ncccn1 | > 100 µM
35 | O=C1C(=Cc2ccc(O)cc2)N=C(c2ccccc2)N1n1c(-c2ccccc2)nc2ccccc2c1=O | > 100 µM
36 | O=C(O)CSc1ccc([N+](=O)[O-])cc1[N+](=O)[O-] | > 100 µM
37 | Nc1ccccc1SC(C[N+](=O)[O-])c1ccc2c(c1)OCO2 (centres undefined) | 24.3 µM

system: SNB-75 CNS; experiment: NCI tumour cell line growth inhibition, 48 h

Row | SMILES | TGI
38 | Oc1ccc(-c2nc(-c3cccnc3)c(-c3ccc(F)cc3)[nH]2)cc1 | 35 µM
39 | COc1ccc(N2C(=O)C3c4[nH]c5ccccc5c4C4CCC(C(C)(C)C)CC4C3C2=O)c(C)c1 (centres undefined) | > 100 µM
40 | Cc1ccsc1/C=N/Nc1ncccn1 | > 100 µM
41 | O=C1C(=Cc2ccc(O)cc2)N=C(c2ccccc2)N1n1c(-c2ccccc2)nc2ccccc2c1=O | > 100 µM
42 | O=C(O)CSc1ccc([N+](=O)[O-])cc1[N+](=O)[O-] | > 100 µM
43 | Nc1ccccc1SC(C[N+](=O)[O-])c1ccc2c(c1)OCO2 (centres undefined) | 7.09 µM

system: SR leukemia; experiment: NCI tumour cell line growth inhibition, 48 h

Row | SMILES | TGI
44 | O=c1[nH]cc(N=Cc2cc(Cl)cc(Cl)c2O)c(=O)[nH]1 | 57.1 µM
45 | Oc1ccc(-c2nc(-c3cccnc3)c(-c3ccc(F)cc3)[nH]2)cc1 | 85 µM
46 | COc1ccc(N2C(=O)C3c4[nH]c5ccccc5c4C4CCC(C(C)(C)C)CC4C3C2=O)c(C)c1 (centres undefined) | > 100 µM
47 | O=C(O)CSc1ccc([N+](=O)[O-])cc1[N+](=O)[O-] | > 100 µM
48 | Nc1ccccc1SC(C[N+](=O)[O-])c1ccc2c(c1)OCO2 (centres undefined) | 4.82 µM

system: SW-620 colon; experiment: NCI tumour cell line growth inhibition, 48 h

Row | SMILES | TGI
49 | Oc1ccc(-c2nc(-c3cccnc3)c(-c3ccc(F)cc3)[nH]2)cc1 | 35.5 µM
50 | COc1ccc(N2C(=O)C3c4[nH]c5ccccc5c4C4CCC(C(C)(C)C)CC4C3C2=O)c(C)c1 (centres undefined) | > 100 µM
51 | Cc1ccsc1/C=N/Nc1ncccn1 | > 100 µM
52 | O=C1C(=Cc2ccc(O)cc2)N=C(c2ccccc2)N1n1c(-c2ccccc2)nc2ccccc2c1=O | > 100 µM
53 | O=C(O)CSc1ccc([N+](=O)[O-])cc1[N+](=O)[O-] | > 100 µM
54 | Nc1ccccc1SC(C[N+](=O)[O-])c1ccc2c(c1)OCO2 (centres undefined) | 7.74 µM

system: T-47D breast; experiment: NCI tumour cell line growth inhibition, 48 h

Row | SMILES | TGI
55 | O=c1[nH]cc(N=Cc2cc(Cl)cc(Cl)c2O)c(=O)[nH]1 | 66.2 µM
56 | Oc1ccc(-c2nc(-c3cccnc3)c(-c3ccc(F)cc3)[nH]2)cc1 | 43.8 µM
57 | COc1ccc(N2C(=O)C3c4[nH]c5ccccc5c4C4CCC(C(C)(C)C)CC4C3C2=O)c(C)c1 (centres undefined) | > 100 µM
58 | Cc1ccsc1/C=N/Nc1ncccn1 | > 100 µM
59 | O=C1C(=Cc2ccc(O)cc2)N=C(c2ccccc2)N1n1c(-c2ccccc2)nc2ccccc2c1=O | > 100 µM
60 | O=C(O)CSc1ccc([N+](=O)[O-])cc1[N+](=O)[O-] | > 100 µM
61 | Nc1ccccc1SC(C[N+](=O)[O-])c1ccc2c(c1)OCO2 (centres undefined) | 25.8 µM

system: TK-10 renal; experiment: NCI tumour cell line growth inhibition, 48 h

Row | SMILES | TGI
62 | O=c1[nH]cc(N=Cc2cc(Cl)cc(Cl)c2O)c(=O)[nH]1 | > 100 µM
63 | Oc1ccc(-c2nc(-c3cccnc3)c(-c3ccc(F)cc3)[nH]2)cc1 | 36.2 µM
64 | COc1ccc(N2C(=O)C3c4[nH]c5ccccc5c4C4CCC(C(C)(C)C)CC4C3C2=O)c(C)c1 (centres undefined) | > 100 µM
65 | Cc1ccsc1/C=N/Nc1ncccn1 | > 100 µM
66 | O=C1C(=Cc2ccc(O)cc2)N=C(c2ccccc2)N1n1c(-c2ccccc2)nc2ccccc2c1=O | > 100 µM
67 | O=C(O)CSc1ccc([N+](=O)[O-])cc1[N+](=O)[O-] | > 100 µM
68 | Nc1ccccc1SC(C[N+](=O)[O-])c1ccc2c(c1)OCO2 (centres undefined) | 7.09 µM

system: U251 CNS; experiment: NCI tumour cell line growth inhibition, 48 h

Row | SMILES | TGI
69 | O=c1[nH]cc(N=Cc2cc(Cl)cc(Cl)c2O)c(=O)[nH]1 | > 100 µM
70 | Oc1ccc(-c2nc(-c3cccnc3)c(-c3ccc(F)cc3)[nH]2)cc1 | 32.9 µM
71 | COc1ccc(N2C(=O)C3c4[nH]c5ccccc5c4C4CCC(C(C)(C)C)CC4C3C2=O)c(C)c1 (centres undefined) | > 100 µM
72 | Cc1ccsc1/C=N/Nc1ncccn1 | > 100 µM
73 | O=C(O)CSc1ccc([N+](=O)[O-])cc1[N+](=O)[O-] | > 100 µM
74 | Nc1ccccc1SC(C[N+](=O)[O-])c1ccc2c(c1)OCO2 (centres undefined) | 8.53 µM

system: UACC-257 melanoma; experiment: NCI tumour cell line growth inhibition, 48 h

Row | SMILES | TGI
75 | O=c1[nH]cc(N=Cc2cc(Cl)cc(Cl)c2O)c(=O)[nH]1 | 83.8 µM
76 | Oc1ccc(-c2nc(-c3cccnc3)c(-c3ccc(F)cc3)[nH]2)cc1 | 31.5 µM
77 | COc1ccc(N2C(=O)C3c4[nH]c5ccccc5c4C4CCC(C(C)(C)C)CC4C3C2=O)c(C)c1 (centres undefined) | > 100 µM
78 | Cc1ccsc1/C=N/Nc1ncccn1 | > 100 µM
79 | O=C1C(=Cc2ccc(O)cc2)N=C(c2ccccc2)N1n1c(-c2ccccc2)nc2ccccc2c1=O | > 100 µM
80 | O=C(O)CSc1ccc([N+](=O)[O-])cc1[N+](=O)[O-] | > 100 µM
81 | Nc1ccccc1SC(C[N+](=O)[O-])c1ccc2c(c1)OCO2 (centres undefined) | 3.86 µM

system: UACC-62 melanoma; experiment: NCI tumour cell line growth inhibition, 48 h

Row | SMILES | TGI
82 | O=c1[nH]cc(N=Cc2cc(Cl)cc(Cl)c2O)c(=O)[nH]1 | 61.5 µM
83 | Oc1ccc(-c2nc(-c3cccnc3)c(-c3ccc(F)cc3)[nH]2)cc1 | 29.6 µM
84 | COc1ccc(N2C(=O)C3c4[nH]c5ccccc5c4C4CCC(C(C)(C)C)CC4C3C2=O)c(C)c1 (centres undefined) | > 100 µM
85 | Cc1ccsc1/C=N/Nc1ncccn1 | > 100 µM
86 | O=C1C(=Cc2ccc(O)cc2)N=C(c2ccccc2)N1n1c(-c2ccccc2)nc2ccccc2c1=O | > 100 µM
87 | O=C(O)CSc1ccc([N+](=O)[O-])cc1[N+](=O)[O-] | > 100 µM
88 | Nc1ccccc1SC(C[N+](=O)[O-])c1ccc2c(c1)OCO2 (centres undefined) | 25.9 µM

system: UO-31 renal; experiment: NCI tumour cell line growth inhibition, 48 h

Row | SMILES | TGI
89 | O=c1[nH]cc(N=Cc2cc(Cl)cc(Cl)c2O)c(=O)[nH]1 | > 100 µM
90 | COc1ccc(N2C(=O)C3c4[nH]c5ccccc5c4C4CCC(C(C)(C)C)CC4C3C2=O)c(C)c1 (centres undefined) | > 100 µM
91 | Cc1ccsc1/C=N/Nc1ncccn1 | > 100 µM
92 | O=C1C(=Cc2ccc(O)cc2)N=C(c2ccccc2)N1n1c(-c2ccccc2)nc2ccccc2c1=O | > 100 µM
93 | O=C(O)CSc1ccc([N+](=O)[O-])cc1[N+](=O)[O-] | > 100 µM
94 | Nc1ccccc1SC(C[N+](=O)[O-])c1ccc2c(c1)OCO2 (centres undefined) | 3.32 µM

Reference: PubChem BioAssay (NCI)
